{"source": "paper PMC11203978", "about": "“Discovery of Di(het)arylmethane and Dibenzoxanthene Derivatives as Potential Anticancer Agents” (International Journal of Molecular Sciences, 2024)", "key": {"M-HeLa": {"system": "M-HeLa", "experiment": "MTT cytotoxicity, M-HeLa", "type": "cell-based, human", "conditions": "M-HeLa", "text": "(§1) Cells and Materials. For the experiments, we used tumor cell cultures M-HeLa clone 11 (epithelioid carcinoma of the cervix, subline HeLa, clone M-HeLa), HuTu 80, human duodenal adenocarcinoma, Hep-2, human epithelial cells, SH-SY5Y, human neuroblast-like cells, A549, human lung adenocarcinoma, PA-1, human ovarian teratocarcinoma and MCF-7, a human mammary ductal adenocarcinoma from the collection of the Institute of Cytology, Russian Academy of Sciences (St. Petersburg, Russia); human liver cells (Chang liver) were from the collection and the Research Institute of Virology of the Russian Academy of Medical Sciences (Moscow, Russia).\n(§2) MTT Assay. The cytotoxic effect on cells was determined using the colorimetric method of cell proliferation—the MTT test. NADP-H-dependent cellular oxidoreductase enzymes can, under certain conditions, reflect the number of viable cells. These enzymes reduce the tetrazolium dye (MTT) 3-(4,5-dimethylthiazol-2-yl)-2,5-diphenyl-tetrazolium bromide to insoluble blue-violet formazan, which crystallizes inside the cell. The amount of formed formazan is proportional to the number of cells with active metabolism. Cells were seeded on a 96-well Nunc plate at a concentration of 5 × 10^3 cells per well in a volume of 100 μL of medium and cultured in a CO2 incubator at 37 °C until a monolayer was formed. After the nutrient medium was removed, 100 µL of the test drug solutions at the given dilutions were added to the wells, which were prepared directly in the nutrient medium with the addition of 5% DMSO to improve solubility. After 48 h of incubation of the cells with the tested compounds, the nutrient medium was removed from the plates and 100 µL of the nutrient medium without serum with MTT at a concentration of 0.5 mg/mL was added and incubated for 4 h at 37 °C. Formazan crystals were added 100 µL of DMSO to each well. Optical density was recorded at 540 nm on an Invitrologic microplate reader (Novosibirsk, Russia). The experiments for all compounds were repeated three times.\n(§3) Statistical analysis. The IC50 values were calculated using the MLA–Quest Graph™ IC50 Calculator (AAT Bioquest, Inc., Sunnyvale, CA, USA), 14 February 2022. Statistical analysis was performed with the Mann–Whitney test (p < 0.05). Tabular and graphical data contain averages and standard error."}, "HuTu 80": {"system": "HuTu 80", "experiment": "MTT cytotoxicity, HuTu 80", "type": "cell-based, human", "text": "as §1, §2, §3"}, "PA-1 cells": {"system": "PA-1 cells", "experiment": "Cell glycolysis, Seahorse XF Glycolysis Stress Test (ECAR)", "type": "cell-based, human", "conditions": "100 μM", "text": "To investigate whether the cytotoxicity of 5a and 6a is related to their effects on metabolism, we quantified their inhibition of glycolysis in human ovarian teratocarcinoma PA-1 cells using Seahorse technology, which allows the rapid assessment of glycolytic metabolism in cells using a proton efflux rate assay (ECAR). It is well known that glucose in cells is converted to pyruvate and then either to lactate in the cytoplasm or CO2 and water in the mitochondria. As glucose is converted to lactate, protons are released into the extracellular environment to maintain intracellular pH homeostasis. This extracellular acidification is measured in real time and provides insight into the rate of glycolytic proton efflux. PA-1 cells are used for the study of glycolysis since a pronounced deregulation of cellular energy is observed in the case of ovarian cancer, mediating the growth, invasion and migration of tumor cells.\nMeasuring ECAR under these conditions provides the parameters presented in Figure 9c,d: the level of glycolysis and glycolytic capacity.\nDetermination of cell glycolysis. Cell glycolysis was measured with Seahorse XF Glycolysis Stress Test Kit and Seahorse Bioscience XF96 Extracellular Flux Analyzer (Agilent Technology, Boston, MA, USA). […] ECAR levels were examined and analyzed using Seahorse Bioscience XF96 Extracellular Flux Analyzer. […]"}, "HuTu 80 cells [1]": {"system": "HuTu 80 cells", "experiment": "Induction of apoptosis, flow cytometry (annexin V-Alexa Fluor 647 / propidium iodide)", "type": "cell-based, human", "conditions": "IC50/2 and IC50, 24 h", "protocol": "The ability of the new compounds, proposed as antitumor agents, to induce cell death via apoptosis is a critical feature for their potential use in therapy. The apoptosis-inducing effects of lead compounds were investigated using flow cytometry at IC50/2 and IC50 concentrations on the HuTu 80 cell line (Figure 6A).\n(§4) Cell Culture. HuTu 80 cells at 1 × 10^6 cells/well in a final volume of 2 mL were seeded into six-well plates. After 48 h of incubation, various concentrations of lead compounds were added to wells.\nCell Apoptosis Analysis. The cells were harvested at 2000 rpm for 5 min and were then washed twice with ice-cold PBS, and resuspended in binding buffer. Next, the samples were incubated with 5 μL of annexin V-Alexa Fluor 647 (Sigma-Aldrich, St Louis, MO, USA) and 5 μL of propidium iodide for 15 min at room temperature in the dark. Finally, the cells were analyzed using flow cytometry (Guava easy Cyte, MERCK, Rahway, NJ, USA) within 1 h. The experiments were repeated three times."}, "Chang Liver": {"system": "Chang Liver", "experiment": "MTT cytotoxicity, normal Chang liver cells", "type": "cell-based, human", "conditions": "Homo sapiens, Chang liver, 48 h incubation, read-out: IC50 (µM) Normal Cell Line Chang Liver", "text": "as §1, §2, §3"}, "MCF-7": {"system": "MCF-7", "experiment": "MTT cytotoxicity, MCF-7", "type": "cell-based", "conditions": "Homo sapiens, MCF7, read-out: IC50 (µM) Cancer Cell Lines MCF-7", "text": "as §1\nMTT Assay. The cytotoxic effect on cells was determined using the colorimetric method of cell proliferation—the MTT test. NADP-H-dependent cellular oxidoreductase enzymes can, under certain conditions, reflect the number of viable cells. These enzymes reduce the tetrazolium dye (MTT) 3-(4,5-dimethylthiazol-2-yl)-2,5-diphenyl-tetrazolium bromide to insoluble blue-violet formazan, which crystallizes inside the cell. The amount of formed formazan is proportional to the number of cells with active metabolism. […] Optical density was recorded at 540 nm on an Invitrologic microplate reader (Novosibirsk, Russia). […]\nStatistical analysis. The IC50 values were calculated using the MLA–Quest Graph™ IC50 Calculator (AAT Bioquest, Inc., Sunnyvale, CA, USA), 14 February 2022. […]"}, "HuTu 80 cells [2]": {"system": "HuTu 80 cells", "experiment": "Mitochondrial membrane potential, JC-10 flow cytometry", "type": "cell-based, human", "conditions": "24 h treatment, IC50/2 and IC50", "protocol": "In this study, we used the fluorescent dye JC-10 from the Mitochondria Membrane Potential Kit (Sigma, St. Louis, MO, USA). Changes in mitochondrial membrane potential under the influence of lead compounds 5a and 6a were determined at IC50/2 and IC50 concentrations on the HuTu 80 cell line. When JC-10 accumulates in the mitochondrial matrix, it forms fluorescent J-aggregates. Their red fluorescence is characteristic for normal cells with high mitochondrial membrane potential. The reduction in mitochondrial membrane potential in apoptotic cells allows JC-10 to escape out of the mitochondria in a monomeric form which has green fluorescence. The mitochondrial membrane potential of HuTu 80 cells is decreased after 24 h treatment with the lead compounds 5a and 6a. The change becomes more pronounced as the concentrations of the tested compounds approach IC50 (Figure 7).\nas §4\nMitochondrial Membrane Potential. […] After the cells were rinsed three times and suspended in PBS, the JC-10 fluorescence was observed using flow cytometry (Guava easy Cyte, MERCK, Rahway, NJ, USA)."}}, "data": [{"smiles": "O=C(C[P+](c1ccccc1)(c1ccccc1)c1ccccc1)NCCC1c2c(ccc3ccccc23)Oc2ccc3ccccc3c21", "note": "[Compound 6a]", "values": [{"measurement": "IC50", "setting": "M-HeLa; Homo sapiens, MTT, 48 h incubation, read-out: IC50 (µM) Cancer Cell Lines M-HeLa", "value": "11 ± 8.7", "unit": "µM"}, {"measurement": "times more effective than the reference drug sorafenib", "setting": "M-HeLa", "value": "three times more effective"}, {"measurement": "IC50", "setting": "HuTu 80; Homo sapiens, HuTu80, 48 h, MTT, 48 h incubation, read-out: IC50 (µM) Cancer Cell Lines HuTu 80", "value": "1.7 ± 0.1", "unit": "µM"}, {"measurement": "times more effective / more cytotoxic than the reference drug sorafenib", "setting": "HuTu 80; HuTu 80", "value": "three times more effective"}, {"measurement": "glycolysis (ECAR) at maximum concentration (in words)", "setting": "PA-1 cells", "value": "completely blocking glycolysis"}, {"measurement": "apoptosis-inducing effect (in words)", "setting": "HuTu 80 cells [1]", "value": "dose-dependent apoptosis"}, {"measurement": "IC50", "setting": "Chang Liver", "value": "41 ± 3.5", "unit": "µM"}, {"measurement": "IC50", "setting": "MCF-7", "value": "7.12 ± 0.76", "unit": "µM"}, {"measurement": "mitochondrial membrane potential (in words)", "setting": "HuTu 80 cells [2]", "value": "decreased"}]}]}
